Key:
MCF-7 cells = assay: Breast Cancer Cell Viability Assay (MCF-7, CellTiter-Glo); type: cell-based; settings: 5 days' compound exposure; for IC50: Homo sapiens, MCF7, 120 h
Outline: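 MCF-7 cells, 320 per well in RPMI with 10% FBS and 20 mM HEPES, adhered overnight, then exposed 5 days to an eleven-point semilog dilution (final 0.3-0.000003 μM). CellTiter-Glo luminescence read; % viability = (sample − cell-free background)/(untreated − background) × 100.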

ER-α = target: T1, ER-α (Homo sapiens, UniProt P03372); assay: Breast Cancer Cell ER-α In Cell Western Assay (SP1); type: cell-based; settings: MCF-7 cells, SP1 antibody, 4 or 24 hr post compound addition; for Emax: MCF7, read-out: ER-α In Cell Western Assay (SP1) Max Response; for DC50: read-out: ER-α In Cell Western Assay (SP1) IC50
T1 sequence (P03372 1-595): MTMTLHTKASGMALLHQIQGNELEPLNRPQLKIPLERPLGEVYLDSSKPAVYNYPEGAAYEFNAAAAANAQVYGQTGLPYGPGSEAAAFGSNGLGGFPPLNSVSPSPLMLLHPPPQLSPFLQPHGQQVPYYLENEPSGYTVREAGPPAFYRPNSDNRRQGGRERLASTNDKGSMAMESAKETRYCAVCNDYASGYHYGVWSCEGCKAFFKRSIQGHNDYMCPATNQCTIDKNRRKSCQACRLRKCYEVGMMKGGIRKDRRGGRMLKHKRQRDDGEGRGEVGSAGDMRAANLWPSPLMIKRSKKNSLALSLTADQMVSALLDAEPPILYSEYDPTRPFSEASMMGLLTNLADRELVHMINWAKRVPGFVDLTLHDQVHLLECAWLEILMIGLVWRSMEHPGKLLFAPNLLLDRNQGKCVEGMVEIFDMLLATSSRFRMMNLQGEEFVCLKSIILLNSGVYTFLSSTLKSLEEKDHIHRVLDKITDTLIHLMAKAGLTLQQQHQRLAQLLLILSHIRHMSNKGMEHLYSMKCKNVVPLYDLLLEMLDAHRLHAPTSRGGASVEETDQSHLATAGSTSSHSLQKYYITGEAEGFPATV
Outline: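 ER-α protein levels measured by in-cell western with SP1 antibody, ratioed to DRAQ5 DNA signal and given as percent of untreated controls. Compounds added at 0.3–0.000003 μM final (eleven semilog points) to adherent MCF-7 cells in stripped serum; exposure 4 or 24 h before fixation.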

Row | IC50 (MCF-7 cells) [nM] | Emax (ER-α) [%] | DC50 (ER-α) [nM] | Structure (SMILES) | MCF7 Viability Assay Max Response (MCF-7 cells)
1 | > 100 | ≥ 40 | > 100 | CC/C(=C(/c1ccc(/C=C/C(=O)O)cc1)c1ccc2[nH]nc(Cl)c2c1)c1ccccc1 [Compound 40, (E)-3-(4-((E)-1-(3-Chloro-1H-indazol-5-yl)-2-phenylbut-1-en-1-yl)phenyl)acrylic acid] | ++ (++ = a single % value ≧ 40%)
2 | ≤ 100 | ≥ 40 | ≤ 100 | CCC/C(=C(/c1ccc(/C=C/C(=O)O)cc1)c1ccc2[nH]ncc2c1)c1ccccc1 [Compound 43, (E)-3-(4-((E)-1-(1H-Indazol-5-yl)-2-phenylpent-1-en-1-yl)phenyl)acrylic acid] | ++ (++ = a single % value ≧ 40%)
3 | ≤ 100 | ≥ 40 | ≤ 100 | CCOC(=O)/C=C/c1ccc(/C(=C(/CC)c2ccc(F)cc2Cl)c2ccc3[nH]ncc3c2)cc1.Cl [Compound 110, (E)-Ethyl 3-(4-((E)-2-(2-chloro-4-fluorophenyl)-1-(1H-indazol-5-yl)but-1-en-1-yl)phenyl)acrylate hydrochloride] | + (+ = a single % value < 40%)
4 | ≤ 100 | ≥ 40 | ≤ 100 | CC/C(=C(/c1ccc(/C=C/C(=O)O)cc1)c1ccc2c(cnn2C)c1)c1ccc(F)cc1Cl [Compound 147, (E)-3-(4-((E)-2-(2-Chloro-4-fluorophenyl)-1-(1-methyl-1H-indazol-5-yl)but-1-en-1-yl)phenyl)acrylic acid] | ++ (++ = a single % value ≧ 40%)
5 | ≤ 100 | ≥ 40 | ≤ 100 | CC(C)/C(=C(/c1ccc(/C=C/C(=O)O)cc1)c1ccc2[nH]ncc2c1)c1ccccc1 [Compound 55, (E)-3-(4-((E)-1-(1H-Indazol-5-yl)-3-methyl-2-phenylbut-1-en-1-yl)phenyl)acrylic acid] | ++ (++ = a single % value ≧ 40%)
6 | ≤ 100 | ≥ 40 | ≤ 100 | CC/C(=C(/c1ccc(/C=C/C(=O)O)cc1)c1ccc2c(cnn2C)c1)c1ccccc1Cl [Compound 145, (E)-3-(4-((E)-2-(2-Chlorophenyl)-1-(1-methyl-1H-indazol-5-yl)but-1-en-1-yl)phenyl)acrylic acid] | ++ (++ = a single % value ≧ 40%)
7 | ≤ 100 | ≥ 40 | ≤ 100 | CC/C(=C(/c1ccc(/C=C/C(=O)O)cc1)c1ccc2[nH]ncc2c1)c1ccc(OC)cc1Cl [Compound 121, (E)-3-(4-((E)-2-(2-Chloro-4-methoxyphenyl)-1-(1H-indazol-5-yl)but-1-en-1-yl)phenyl)acrylic acid] | ++ (++ = a single % value ≧ 40%)
8 | ≤ 100 | ≥ 40 | – | CC/C(=C(/c1ccc(/C=C/C(=O)O)cc1)c1ccc2[nH]ncc2c1)c1cccc(C#N)c1 [Compound 44, (E)-3-(4-((E)-2-(3-Cyanophenyl)-1-(1H-indazol-5-yl)but-1-en-1-yl)phenyl)acrylic acid] | ++ (++ = a single % value ≧ 40%)
9 | ≤ 100 | ≥ 40 | ≤ 100 | CCOC(=O)/C=C/c1ccc(/C(=C(/CC)c2ccc(Cl)cc2Cl)c2ccc3[nH]ncc3c2)cc1 [Compound 112, (E)-Ethyl 3-(4-((E)-2-(2,4-dichlorophenyl)-1-(1H-indazol-5-yl)but-1-en-1-yl)phenyl)acrylate] | + (+ = a single % value < 40%)
10 | ≤ 100 | ≥ 40 | ≤ 100 | CCCC/C(=C(/c1ccc(/C=C/C(=O)O)cc1)c1ccc2[nH]ncc2c1)c1ccccc1 [Compound 59, (E)-3-(4-((E)-1-(1H-Indazol-5-yl)-2-phenylhex-1-en-1-yl)phenyl)acrylic acid] | ++ (++ = a single % value ≧ 40%)
11 | ≤ 100 | ≥ 40 | ≤ 100 | O=C(O)/C=C/c1ccc(/C(=C(/CCF)c2ccc(F)cc2)c2ccc3[nH]ncc3c2)cc1 [Compound 78, (E)-3-(4-((E)-4-Fluoro-2-(4-fluorophenyl)-1-(1H-indazol-5-yl)but-1-en-1-yl)phenyl)acrylic acid] | ++ (++ = a single % value ≧ 40%)
12 | > 100 | ≥ 40 | ≤ 100 | CC/C(=C(/c1ccc(/C=C/C(=O)O)cc1)c1ccc2[nH]ncc2c1)c1cccc(CO)c1 [Compound 6, (E)-3-(4-((E)-2-(3-(Hydroxymethyl)phenyl)-1-(1H-indazol-5-yl)but-1-en-1-yl)phenyl)acrylic acid] | ++ (++ = a single % value ≧ 40%)
13 | ≤ 100 | ≥ 40 | ≤ 100 | Cc1cc(F)ccc1/C(=C(\c1ccc(/C=C/C(=O)O)cc1)c1ccc2[nH]ncc2c1F)C1CC1 [Compound 71, (E)-3-(4-((E)-2-Cyclopropyl-1-(4-fluoro-1H-indazol-5-yl)-2-(4-fluoro-2-methylphenyl)vinyl)phenyl)acrylic acid] | ++ (++ = a single % value ≧ 40%)
14 | ≤ 100 | ≥ 40 | ≤ 100 | O=C(O)/C=C/c1ccc(/C(=C(\c2ccccc2)C2CC2)c2ccc3[nH]ncc3c2F)cc1 [Compound 75, (E)-3-(4-((E)-2-Cyclopropyl-1-(4-fluoro-1H-indazol-5-yl)-2-phenylvinyl)phenyl)acrylic acid] | ++ (++ = a single % value ≧ 40%)
15 | ≤ 100 | ≥ 40 | ≤ 100 | O=C(O)/C=C/c1ccc(/C(=C(\c2ccc(F)cc2Cl)C(F)F)c2ccc3[nH]ncc3c2)cc1 [Compound 74, (E)-3-(4-((Z)-2-(2-Chloro-4-fluorophenyl)-3,3-difluoro-1-(1H-indazol-5-yl)prop-1-en-1-yl)phenyl)acrylic acid] | ++ (++ = a single % value ≧ 40%)
16 | ≤ 100 | ≥ 40 | ≤ 100 | CC/C(=C(/c1ccc(/C=C/C(=O)O)cc1)c1ccc2[nH]ncc2c1F)c1ccc(Cl)cc1Cl [Compound 118, (E)-3-(4-((E)-2-(2,4-Dichlorophenyl)-1-(4-fluoro-1H-indazol-5-yl)but-1-en-1-yl)phenyl)acrylic acid] | ++ (++ = a single % value ≧ 40%)
17 | ≤ 100 | ≥ 40 | – | CC/C(=C(\c1ccc2[nH]ncc2c1)c1ccc(/C=C/C(=O)O)cc1OC)c1ccccc1 [Compound 108, (E)-3-(4-((Z)-1-(1H-Indazol-5-yl)-2-phenylbut-1-en-1-yl)-3-methoxyphenyl)acrylic acid] | ++ (++ = a single % value ≧ 40%)
18 | ≤ 100 | ≥ 40 | ≤ 100 | CC/C(=C(/c1ccc(/C=C/C(=O)O)cc1)c1ccc2c(cnn2C(F)F)c1)c1ccc(F)cc1Cl [Compound 148, (E)-3-(4-((E)-2-(2-Chloro-4-fluorophenyl)-1-(1-(difluoromethyl)-1H-indazol-5-yl)but-1-en-1-yl)phenyl)acrylic acid] | ++ (++ = a single % value ≧ 40%)
19 | ≤ 100 | ≥ 40 | ≤ 100 | CC/C(=C(/c1ccc(/C=C/C(=O)O)cc1)c1ccc2[nH]ncc2c1)c1cccc(F)c1 [Compound 17, (E)-3-(4-((E)-2-(3-Fluorophenyl)-1-(1H-indazol-5-yl)but-1-en-1-yl)phenyl)acrylic acid] | ++ (++ = a single % value ≧ 40%)
20 | ≤ 100 | ≥ 40 | ≤ 100 | CC/C(=C(/c1ccc(/C=C/C(=O)O)cc1)c1ccc2[nH]ncc2c1)c1cc(OC)ccc1Cl [Compound 130, (E)-3-(4-((E)-2-(2-Chloro-5-methoxyphenyl)-1-(1H-indazol-5-yl)but-1-en-1-yl)phenyl)acrylic acid] | ++ (++ = a single % value ≧ 40%)
21 | ≤ 100 | ≥ 40 | ≤ 100 | CC/C(=C(/c1ccc(/C=C/C(=O)O)cc1)c1ccc2[nH]ncc2c1)c1cc(F)ccc1Cl [Compound 33, (E)-3-(4-((E)-2-(2-Chloro-5-fluorophenyl)-1-(1H-indazol-5-yl)but-1-en-1-yl)phenyl)acrylic acid] | ++ (++ = a single % value ≧ 40%)
22 | ≤ 100 | ≥ 40 | ≤ 100 | CC/C(=C(/c1ccc(/C=C/C(=O)O)cc1)c1ccc2[nH]ncc2c1F)c1ccc(F)cc1Cl [Compound 61, (E)-3-(4-((E)-2-(2-Chloro-4-fluorophenyl)-1-(4-fluoro-1H-indazol-5-yl)but-1-en-1-yl)phenyl)acrylic acid] | ++ (++ = a single % value ≧ 40%)
